Experimental data reported in the supplement of paper PMC4862054.

Columns and labels:
[1] = test system: MDA-MB-468; assay: normalised viability (% of control), CellTiter-Blue; higher = more viable cells (100 = DMSO, 0 = benzethonium chloride kill control); details: 1 nM; incubation time: 72 h
Procedure: (§1)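 DSRT, CellTiter-Blue viability, 72 h incubation. Signal is normalised to DMSO and benzethonium chloride controls. Value is the normalised response at dose 1.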

[2] = test system: HCC1143; assay: as above; details: 1 nM; incubation time: 72 h
Procedure: as §1

[3] = test system: CAL-148; assay: as above; details: 1 nM; incubation time: 72 h
Procedure: as §1

[4] = test system: MFM-223; assay: as above; details: 1 nM; incubation time: 72 h
Procedure: as §1

[5] = test system: MDA-MB-231; assay: as above; details: 1 nM; incubation time: 72 h
Procedure: as §1

[6] = test system: HCC1937; assay: as above; details: 1 nM; incubation time: 72 h
Procedure: as §1

[7] = test system: MDA-MB-453; assay: as above; details: 1 nM; incubation time: 72 h
Procedure: as §1

[8] = test system: BT-549; assay: as above; details: 1 nM; incubation time: 72 h
Procedure: as §1

[9] = test system: Hs578T; assay: as above; details: 1 nM; incubation time: 72 h
Procedure: as §1

[10] = test system: HDQ-P1; assay: as above; details: 1 nM; incubation time: 72 h
Procedure: as §1

[11] = test system: CAL-85-1; assay: as above; details: 1 nM; incubation time: 72 h
Procedure: as §1

[12] = test system: MDA-MB-436; assay: as above; details: 1 nM; incubation time: 72 h
Procedure: as §1

[13] = test system: DU-4475; assay: as above; details: 1 nM; incubation time: 72 h
Procedure: as §1

[14] = test system: CAL-120; assay: as above; details: 1 nM; incubation time: 72 h
Procedure: as §1

[15] = test system: SK-BR-3; assay: as above; details: 1 nM; incubation time: 72 h
Procedure: as §1

[16] = test system: MFM-223; assay: drug sensitivity score (DSS), CellTiter-Glo (DSS (AUC-based score)); higher = stronger drug effect (viability inhibition or cytotoxicity); extreme values may be limits of the assay; details: incubation time: 72 h
In short: (§2)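 After 72 h of incubation in 384-well plates with compound at 5 concentrations (10-fold steps, 10,000-fold range set per compound), breast cancer cell lines seeded in 20 µl suspension were read first for CellTox Green fluorescence at 485/520 nm. CellTiter-Glo luminescence was measured next, after 10 min at room temperature. Normalisation on each plate used 0.1 % DMSO and a positive kill control, and the drug sensitivity score was computed from the area under the fitted dose-response curve.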

[17] = test system: MDA-MB-231; assay: as above; details: incubation time: 72 h
In short: as §2

[18] = test system: HCC1937; assay: as above; details: incubation time: 72 h
In short: as §2

[19] = test system: MDA-MB-453; assay: as above; details: incubation time: 72 h
In short: as §2

[20] = test system: BT-549; assay: as above; details: incubation time: 72 h
In short: as §2

[21] = test system: Hs578T; assay: as above; details: incubation time: 72 h
In short: as §2

[22] = test system: HDQ-P1; assay: as above; details: incubation time: 72 h
In short: as §2

[23] = test system: CAL-85-1; assay: as above; details: incubation time: 72 h
In short: as §2

[24] = test system: DU-4475; assay: as above; details: incubation time: 72 h
In short: as §2

[25] = test system: BT-474; assay: as above; details: incubation time: 72 h
In short: as §2

[26] = test system: CAL-120; assay: as above; details: incubation time: 72 h
In short: as §2

[27] = test system: CAL-51; assay: as above; details: incubation time: 72 h
In short: as §2

Compound	normalised viability [1] [%]	normalised viability [2] [%]	normalised viability [3] [%]	normalised viability [4] [%]	normalised viability [5] [%]	normalised viability [6] [%]	normalised viability [7] [%]	normalised viability [8] [%]	normalised viability [9] [%]	normalised viability [10] [%]	normalised viability [11] [%]	normalised viability [12] [%]	normalised viability [13] [%]	normalised viability [14] [%]	normalised viability [15] [%]	drug sensitivity score [16]	drug sensitivity score [17]	drug sensitivity score [18]	drug sensitivity score [19]	drug sensitivity score [20]	drug sensitivity score [21]	drug sensitivity score [22]	drug sensitivity score [23]	drug sensitivity score [24]	drug sensitivity score [25]	drug sensitivity score [26]	drug sensitivity score [27]
C=CC(=O)Nc1cc2c(Nc3ccc(F)c(Cl)c3)ncnc2cc1OCCCN1CCOCC1 [Canertinib]	110	90.2	99.5	92.8	98.5	90.6	103	110	103	88.3	80	97.5	98.5	84.4	86.2	3.18	8.75	5.34	6.35	7.57	2.99	11.8	13.6	0.331	6.57	3.29	14.1
CC1=C(/C=C/C(C)=C/C=C/C(C)=C/C(=O)O)C(C)(C)CCC1 [Tretinoin]	109	94.9	103	98	97.2	117	100	98.4	116	114	87.1	90.4	91.8	86.9	97.7	0	1.34	0	2.34	0	1.26	0	0	0	0	0	0
O=C(Cc1ccc(-c2ccc(OCCN3CCOCC3)cc2)cn1)NCc1ccccc1 [KX2-391]	113	92.7	107	91.7	92.8	93.7	116	124	130	138	84.6	89	103	93.8	105	15.6	14.1	8.24	9	16.3	23.2	8.26	18.5	15.2	12.8	11	25.9
O=C(O)C(=O)O.[NH-][C@@H]1CCCC[C@H]1[NH-].[Pt+2] [Oxaliplatin]	109	93	109	97.1	101	84	100	89	96.7	130	86.7	106	99.8	84.8	91	0	0	0	0	0	0	0	0	0	0	0	0
COc1cc2nccc(Oc3ccc(NC(=O)Nc4cc(C)on4)c(Cl)c3)c2cc1OC [Tivozanib]	98.3	103	103	100	88	92.5	97.4	81.1	103	97.6	114	102	102	106	102	7.56	2.77	1.42	2.71	0	0	1.67	0	0	0	0	0
CCCCC(=O)OCC(=O)[C@]1(O)Cc2c(O)c3c(c(O)c2[C@@H](O[C@H]2C[C@H](NC(=O)C(F)(F)F)[C@H](O)[C@H](C)O2)C1)C(=O)c1c(OC)cccc1C3=O [Valrubicin]	84.3	86.5	88.8	90.3	79.7	81.6	97.6	107	103	96.8	83.5	106	93.9	92.9	85.5	1.28	3.05	4.28	2.44	9.05	5.56	5.59	4.91	11.5	3.82	0	16.8
